Assay results: patent US10407445B2, “Hepatitis C virus inhibitors” (ENANTA PHARMACEUTICALS, INC., priority 2013, dated 2019)

Experiments:
Assay type in all cases: cell-based
Details in all cases: Hepatitis C virus
GT2a-2b-MD2b replicon = assay: Stable replicon assay, comparison to daclatasvir, GT2a-2b-MD2b
Source text: (§1) The plasmid pSG-hRlucNeo-JFH1 was generated from pSG-Neo-JFH1 (Kato et al. 2003, Gastroentrology 125:1808-1817). A fragment containing the JFH-1 5′ NTR-hRluc-Neo gene and two unique restriction sites (AgeI and PmeI) was synthesized (Integrated DNA Technologies, Coralville, Iowa). The resulting plasmid was digested with AgeI and PmeI and the excised fragment (5′NTR-hRluc-Neo) was ligated into pSG-Neo-JFH1 digested with the same enzymes to generate pSG-hRlucNeo-JFH1. To allow expression of heterologous NS5A sequences, an NS5A shuttle vector was generated from pSG-Neo-JFH1, in which the entire coding sequence of NS5A plus the first eight codons of NS5B were replaced with an AfeI restriction site. This was done by Infusion cloning (Clontech, Mountain View, Calif.) from two PCR products that were generated using pSG-Neo-JFH1 as a template and the following primer pairs: […]
(§2) Stable HCV replicon cell lines were grown in complete media (Dulbecco's modified Eagle medium [DMEM], 2 mM L-glutamine, 0.1 mM essential amino acids, 1 mM sodium pyruvate, 10% fetal bovine serum) with the addition 500 μg/ml […] (G418). […] For stable and transient replicon assays, luciferase activity of compound-treated cells was measured relative to DMSO-treated cells after 72 h incubation using RENILLA-GLO™ Luciferase Assay (Promega). […]

GT2a-5a-SA13 replicon = assay: Stable replicon assay, comparison to daclatasvir, GT2a-5a-SA13
Source text: as §1, §2

GT2a-6a-HK6a replicon = assay: Stable replicon assay, comparison to daclatasvir, GT2a-6a-HK6a
Source text: The plasmid pSG-hRlucNeo-JFH1 was generated from pSG-Neo-JFH1 (Kato et al. 2003, Gastroentrology 125:1808-1817). A fragment containing the JFH-1 5′ NTR-hRluc-Neo gene and two unique restriction sites (AgeI and PmeI) was synthesized (Integrated DNA Technologies, Coralville, Iowa). The resulting plasmid was digested with AgeI and PmeI and the excised fragment (5′NTR-hRluc-Neo) was ligated into pSG-Neo-JFH1 digested with the same enzymes to generate pSG-hRlucNeo-JFH1. To allow expression of heterologous NS5A sequences, an NS5A shuttle vector was generated from pSG-Neo-JFH1, in which the entire coding sequence of NS5A plus the first eight codons of NS5B were replaced with an AfeI restriction site. This was done by Infusion cloning (Clontech, Mountain View, Calif.) from two PCR products that were generated using pSG-Neo-JFH1 as a template and the following primer pairs:
To express GT6a NS5A chimeric sequences a JFH1-based N-terminal NS5A (NS5A residues 2-107) shuttle vector was constructed by Infusion cloning from two PCR products that were generated using pSG-Neo-JFH1 as a template and the following primers: […]
Purified PCR products were inserted into an NsiI/SnaBI digested pSG-Neo-JFH1 vector by Infusion cloning following the manufacturer's instructions to generate pSG-Neo-JFH1-Nterm_5Ashuttle. […]

[1] = system: HCV genotype 1a replicon, NS5A Q30R H58D; assay: Transient replication assay, GT1a NS5A Q30R H58D

| SMILES | EC50 (GT2a-2b-MD2b replicon) [nM] | EC50 (GT2a-5a-SA13 replicon) [nM] | EC50 (GT2a-6a-HK6a replicon) [nM] | EC50 [1] [nM] |
| --- | --- | --- | --- | --- |
| COC(=O)N[C@H](C(=O)N1C[C@]2(CCCOC2)C[C@H]1c1ncc(-c2ccc(-c3ccc4c(ccc5nc([C@@H]6C[C@@H]7CCC[C@@H]7N6C(=O)[C@@H](NC(=O)OC)C(C)C)[nH]c54)c3)cc2)[nH]1)C(C)C [Compound 16] | 21 | 0.005 | 0.002 | 2.8 |
| COC(=O)N[C@H](C(=O)N1CCC[C@H]1c1nc(-c2ccc(-c3ccc(-c4c[nH]c([C@@H]5CCCN5C(=O)[C@@H](NC(=O)OC)C(C)C)n4)cc3)cc2)c[nH]1)C(C)C [Daclatasvir, reference compound] | 33 | 0.009 | 0.005 | 838 |
